{"source": "paper PMC5571287", "about": "(Antimicrobial Agents and Chemotherapy, 2017)", "key": {"RSV A Long [1]": {"test_system": "RSV A Long", "assay": "CPE assay in HEp-2 cells (resazurin)", "type": "cell-based", "conditions": "human respiratory syncytial virus, laboratory"}, "RSVA 492 [2]": {"test_system": "RSVA 492", "assay": "microbe, parasite or virus in culture", "type": "cell-based", "conditions": "human respiratory syncytial virus, RSVA 492, clinical"}, "RSVB 1276 [3]": {"test_system": "RSVB 1276", "assay": "microbe, parasite or virus in culture", "type": "cell-based", "conditions": "human respiratory syncytial virus, RSVB 1276, clinical, 3 parameter curve fit"}, "PIV3 (C243 strain)": {"test_system": "PIV3 (C243 strain)", "assay": "organism not typed", "type": "cell-based, parainfluenza virus 3", "conditions": "PIV3, LLC-MK2 7.1"}, "[4]": {"test_system": "Influenza virus H1N1 (A/PR/34 strain)", "assay": "microbe, parasite or virus in culture", "type": "cell-based", "conditions": "Influenza virus H1N1, A549"}, "[5]": {"test_system": "Hepatitis C virus GT1b replicon", "assay": "microbe, parasite or virus in culture", "type": "cell-based"}, "HIV-1 (IIIB strain)": {"test_system": "HIV-1 (IIIB strain)", "assay": "microbe, parasite or virus in culture", "type": "cell-based, human immunodeficiency virus type 1", "conditions": "HIV-1, CEM-SS"}, "RSV A2 [6]": {"test_system": "RSV A2", "assay": "RSV F protein cell-based ELISA in BEAS-2B cells, washout / nonwashout", "conditions": "human respiratory syncytial virus, read-out: IC50, F protein expressed on cell surfaces", "procedure": "Approximately 72 h after BEAS-2B cells were seeded in 96-well plates (at 4 × 10^4/ml; 100 μl/well), the medium in the plates was removed and replaced with 200 μl of fresh LHC-8 medium. […] For nonwashout plates, the compounds and DMSO (1 μl/well) were applied immediately after infection. On day 3 postinfection, supernatant was aspirated and the cells were fixed with 4% formaldehyde (100 μl in PBS solution) for 20 min at room temperature (RT), washed three times with wash buffer (WB) (200 μl; PBS containing 0.05% Tween 20), and incubated with blocking buffer (100 μl; 5% bovine serum albumin [BSA] in wash buffer) for 1 h. […] Abcam plc, Cambridge, UK). After a washing, cells were incubated with a horseradish peroxidase (HRP)-conjugated anti-mouse IgG antibody (50 μl/well; 1:2,000, Abcam) for 1 h. Tetramethylbenzidine (TMB) substrate (50 μl) was then added after two washings with WB and one with PBS, and the reaction was stopped by the addition of aqueous sulfuric acid (2 N; 50 μl/well). The resultant signal was determined colorimetrically (OD at 450 nm [OD450] with a reference wavelength of 655 nm) in a microplate reader (Multiskan FC; Thermo Fisher Scientific). Cells were then washed, and 0.5% crystal violet solution ([…]) was applied for 30 min. […] The measured F protein signals (OD450 − OD655 readings) were corrected for cell number (OD595 readings) by dividing the OD450–655 by the OD595 readings."}, "RSV A2 [7]": {"test_system": "RSV A2", "assay": "RSV A2-infected BALB/c mice, virus load in lung homogenate", "type": "in vivo"}, "RSV A Long [8]": {"test_system": "RSV A Long", "assay": "RSV A Long-infected cotton rats, lung homogenate viral load and transcripts", "type": "in vivo"}, "[9]": {"target": "RSV RdRp activity in crude RSV A L-P complex (Human respiratory syncytial virus A, UniProt P28887)", "sequence (P28887 whole entry)": "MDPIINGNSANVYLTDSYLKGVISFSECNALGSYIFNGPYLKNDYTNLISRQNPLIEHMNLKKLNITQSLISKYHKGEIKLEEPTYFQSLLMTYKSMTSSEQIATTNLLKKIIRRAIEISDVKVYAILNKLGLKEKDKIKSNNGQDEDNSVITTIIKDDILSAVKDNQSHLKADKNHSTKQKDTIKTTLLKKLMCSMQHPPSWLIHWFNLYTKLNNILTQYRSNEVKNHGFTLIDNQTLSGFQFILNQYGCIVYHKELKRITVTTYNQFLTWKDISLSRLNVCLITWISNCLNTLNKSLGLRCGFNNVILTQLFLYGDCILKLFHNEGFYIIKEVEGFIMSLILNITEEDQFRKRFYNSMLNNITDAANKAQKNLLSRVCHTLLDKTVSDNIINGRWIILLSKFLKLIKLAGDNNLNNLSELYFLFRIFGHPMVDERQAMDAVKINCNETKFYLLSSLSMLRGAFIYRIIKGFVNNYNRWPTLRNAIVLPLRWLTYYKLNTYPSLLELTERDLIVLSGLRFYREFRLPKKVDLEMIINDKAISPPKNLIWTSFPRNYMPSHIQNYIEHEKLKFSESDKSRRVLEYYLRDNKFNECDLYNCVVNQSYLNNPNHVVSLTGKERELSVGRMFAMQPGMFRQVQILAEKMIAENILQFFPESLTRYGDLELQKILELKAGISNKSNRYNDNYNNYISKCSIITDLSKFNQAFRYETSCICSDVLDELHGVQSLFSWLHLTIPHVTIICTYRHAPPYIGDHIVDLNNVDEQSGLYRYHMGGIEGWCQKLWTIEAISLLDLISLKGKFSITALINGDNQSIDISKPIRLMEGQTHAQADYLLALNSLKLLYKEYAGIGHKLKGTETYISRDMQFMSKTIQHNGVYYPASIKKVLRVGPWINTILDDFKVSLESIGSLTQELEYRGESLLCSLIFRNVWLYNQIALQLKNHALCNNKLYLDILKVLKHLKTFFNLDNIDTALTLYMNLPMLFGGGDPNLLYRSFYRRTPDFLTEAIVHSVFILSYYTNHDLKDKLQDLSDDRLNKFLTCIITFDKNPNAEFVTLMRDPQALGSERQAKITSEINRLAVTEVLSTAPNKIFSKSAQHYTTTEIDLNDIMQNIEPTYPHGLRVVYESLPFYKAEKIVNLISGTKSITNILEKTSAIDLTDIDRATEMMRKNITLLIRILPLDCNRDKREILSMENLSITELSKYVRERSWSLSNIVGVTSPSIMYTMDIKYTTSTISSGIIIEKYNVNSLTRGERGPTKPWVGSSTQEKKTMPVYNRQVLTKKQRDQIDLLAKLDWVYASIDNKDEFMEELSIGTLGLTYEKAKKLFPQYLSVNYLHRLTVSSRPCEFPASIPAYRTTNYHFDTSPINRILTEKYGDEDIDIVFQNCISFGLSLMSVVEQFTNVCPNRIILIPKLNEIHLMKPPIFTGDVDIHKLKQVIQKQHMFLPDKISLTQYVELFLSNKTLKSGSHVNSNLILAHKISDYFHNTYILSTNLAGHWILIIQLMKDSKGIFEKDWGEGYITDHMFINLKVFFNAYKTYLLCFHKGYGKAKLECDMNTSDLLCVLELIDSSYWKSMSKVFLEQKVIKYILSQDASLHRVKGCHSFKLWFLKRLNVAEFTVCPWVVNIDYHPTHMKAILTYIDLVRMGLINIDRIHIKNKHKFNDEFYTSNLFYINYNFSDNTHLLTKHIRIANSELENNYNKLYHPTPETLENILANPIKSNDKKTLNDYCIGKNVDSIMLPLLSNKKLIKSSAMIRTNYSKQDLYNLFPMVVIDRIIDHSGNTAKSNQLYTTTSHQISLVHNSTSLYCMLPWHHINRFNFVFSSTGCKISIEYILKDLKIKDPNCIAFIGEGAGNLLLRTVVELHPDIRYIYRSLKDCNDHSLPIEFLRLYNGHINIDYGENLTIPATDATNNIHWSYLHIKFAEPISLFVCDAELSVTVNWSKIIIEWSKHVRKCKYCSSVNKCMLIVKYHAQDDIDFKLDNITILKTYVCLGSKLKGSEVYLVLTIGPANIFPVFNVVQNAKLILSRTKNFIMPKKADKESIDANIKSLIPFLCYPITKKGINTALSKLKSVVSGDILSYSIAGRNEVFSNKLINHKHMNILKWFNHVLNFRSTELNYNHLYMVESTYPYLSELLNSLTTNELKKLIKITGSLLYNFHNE", "sequence (P03421 whole entry, further chain)": "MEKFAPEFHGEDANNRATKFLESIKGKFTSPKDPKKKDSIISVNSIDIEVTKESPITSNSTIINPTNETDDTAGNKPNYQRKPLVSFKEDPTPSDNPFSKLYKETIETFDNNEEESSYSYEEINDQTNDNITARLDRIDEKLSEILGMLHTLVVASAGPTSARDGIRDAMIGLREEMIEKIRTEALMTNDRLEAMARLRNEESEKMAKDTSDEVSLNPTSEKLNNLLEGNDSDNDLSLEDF", "assay": "biochemical", "conditions": "read-out: RdRp activity IC90"}, "human polymerase α": {"target": "human polymerase α (Homo sapiens, UniProt P09884)", "sequence (P09884 whole entry)": "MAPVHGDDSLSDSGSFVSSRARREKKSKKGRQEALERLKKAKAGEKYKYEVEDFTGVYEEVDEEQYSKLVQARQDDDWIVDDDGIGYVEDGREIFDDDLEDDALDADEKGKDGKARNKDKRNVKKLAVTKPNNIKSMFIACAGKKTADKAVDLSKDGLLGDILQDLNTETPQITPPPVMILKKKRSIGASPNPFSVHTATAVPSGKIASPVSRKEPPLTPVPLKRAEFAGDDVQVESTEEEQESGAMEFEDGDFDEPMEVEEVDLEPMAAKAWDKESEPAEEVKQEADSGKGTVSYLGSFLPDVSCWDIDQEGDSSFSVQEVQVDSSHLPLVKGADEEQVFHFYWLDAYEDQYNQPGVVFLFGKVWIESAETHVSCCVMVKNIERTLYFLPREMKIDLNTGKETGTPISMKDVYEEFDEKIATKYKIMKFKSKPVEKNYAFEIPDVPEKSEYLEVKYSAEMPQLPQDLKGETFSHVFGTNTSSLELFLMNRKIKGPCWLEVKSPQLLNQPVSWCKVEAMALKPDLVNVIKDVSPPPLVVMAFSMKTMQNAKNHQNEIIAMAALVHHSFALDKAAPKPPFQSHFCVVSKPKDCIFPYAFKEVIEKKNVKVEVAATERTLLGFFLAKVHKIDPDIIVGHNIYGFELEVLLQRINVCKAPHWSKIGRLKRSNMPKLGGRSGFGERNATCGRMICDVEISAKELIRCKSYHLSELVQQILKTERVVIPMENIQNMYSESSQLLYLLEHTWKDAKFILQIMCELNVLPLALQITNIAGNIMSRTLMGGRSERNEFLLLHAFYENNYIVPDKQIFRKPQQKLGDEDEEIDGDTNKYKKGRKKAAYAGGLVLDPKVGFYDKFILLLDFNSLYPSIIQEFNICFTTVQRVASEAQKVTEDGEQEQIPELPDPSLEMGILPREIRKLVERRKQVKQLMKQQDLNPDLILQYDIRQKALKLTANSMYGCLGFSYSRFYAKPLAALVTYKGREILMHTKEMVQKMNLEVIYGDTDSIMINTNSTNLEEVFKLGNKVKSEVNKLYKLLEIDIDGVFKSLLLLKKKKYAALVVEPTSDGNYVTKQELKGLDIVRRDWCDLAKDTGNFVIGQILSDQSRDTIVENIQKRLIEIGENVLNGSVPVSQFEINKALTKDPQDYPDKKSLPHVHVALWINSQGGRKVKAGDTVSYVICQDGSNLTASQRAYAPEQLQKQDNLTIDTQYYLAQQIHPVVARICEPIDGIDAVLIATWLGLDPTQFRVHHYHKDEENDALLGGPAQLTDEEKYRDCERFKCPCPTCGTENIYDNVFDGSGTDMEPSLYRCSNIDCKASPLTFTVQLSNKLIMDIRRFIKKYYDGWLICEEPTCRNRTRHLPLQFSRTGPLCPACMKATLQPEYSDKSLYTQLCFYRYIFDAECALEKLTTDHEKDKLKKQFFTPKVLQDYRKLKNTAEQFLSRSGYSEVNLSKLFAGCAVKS", "assay": "Human polymerase inhibition in vitro (data not shown)", "type": "biochemical", "conditions": "up to 1 μM"}, "human polymerase β": {"target": "human polymerase β (Homo sapiens, UniProt P06746)", "assay": "Human polymerase inhibition in vitro (data not shown)", "type": "biochemical", "conditions": "up to 1 μM"}, "human polymerase γ": {"target": "human polymerase γ (Homo sapiens, UniProt P54098)", "sequence (P54098 whole entry)": "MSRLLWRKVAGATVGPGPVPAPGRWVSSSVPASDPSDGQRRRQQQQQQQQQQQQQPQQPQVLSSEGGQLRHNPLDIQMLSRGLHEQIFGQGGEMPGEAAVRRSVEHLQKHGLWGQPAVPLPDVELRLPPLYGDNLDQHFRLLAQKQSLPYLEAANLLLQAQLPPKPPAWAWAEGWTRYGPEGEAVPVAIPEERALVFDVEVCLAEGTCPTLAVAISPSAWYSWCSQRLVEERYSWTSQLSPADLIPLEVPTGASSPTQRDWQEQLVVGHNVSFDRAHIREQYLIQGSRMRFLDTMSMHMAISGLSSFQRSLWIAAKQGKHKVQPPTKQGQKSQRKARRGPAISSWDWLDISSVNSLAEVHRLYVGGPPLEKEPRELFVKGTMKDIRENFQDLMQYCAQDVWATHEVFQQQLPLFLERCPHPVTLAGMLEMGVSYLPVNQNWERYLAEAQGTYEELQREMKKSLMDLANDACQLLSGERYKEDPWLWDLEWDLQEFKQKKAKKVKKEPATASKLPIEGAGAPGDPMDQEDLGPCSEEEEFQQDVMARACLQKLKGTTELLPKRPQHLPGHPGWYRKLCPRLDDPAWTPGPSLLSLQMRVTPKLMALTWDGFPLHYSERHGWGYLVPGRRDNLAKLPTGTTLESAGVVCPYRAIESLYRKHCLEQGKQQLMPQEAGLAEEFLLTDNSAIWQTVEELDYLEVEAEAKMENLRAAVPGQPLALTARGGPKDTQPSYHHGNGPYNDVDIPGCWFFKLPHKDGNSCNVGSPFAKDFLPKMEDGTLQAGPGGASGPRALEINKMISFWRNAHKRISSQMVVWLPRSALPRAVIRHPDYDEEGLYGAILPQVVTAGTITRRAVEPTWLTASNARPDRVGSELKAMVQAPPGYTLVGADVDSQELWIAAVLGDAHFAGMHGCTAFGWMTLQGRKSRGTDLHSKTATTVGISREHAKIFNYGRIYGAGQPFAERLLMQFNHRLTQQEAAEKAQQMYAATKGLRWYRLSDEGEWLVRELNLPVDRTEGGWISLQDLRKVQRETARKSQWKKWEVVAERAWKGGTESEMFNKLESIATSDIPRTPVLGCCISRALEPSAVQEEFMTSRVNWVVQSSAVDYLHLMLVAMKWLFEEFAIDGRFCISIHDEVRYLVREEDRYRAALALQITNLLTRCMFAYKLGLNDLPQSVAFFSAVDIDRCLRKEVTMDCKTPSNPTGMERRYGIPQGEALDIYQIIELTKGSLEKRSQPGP", "assay": "Human polymerase inhibition in vitro (data not shown)", "type": "biochemical", "conditions": "up to 1 μM"}, "in vitro": {"assay": "in vitro", "conditions": "African green monkey"}, "[10]": {"assay": "Cell viability in HEp-2 cells (resazurin)", "conditions": "human, HEp-2 cells"}, "HEp-2 cells": {"test_system": "HEp-2 cells", "assay": "Cell viability in HEp-2 cells (resazurin)", "conditions": "concentrations up to 14 μM"}, "RSV A2 [11]": {"test_system": "RSV A2", "conditions": "human respiratory syncytial virus"}, "RSV A Long [12]": {"test_system": "RSV A Long", "conditions": "human respiratory syncytial virus"}, "RSV B 9320": {"test_system": "RSV B 9320", "conditions": "human respiratory syncytial virus"}, "RSVA 689": {"test_system": "RSVA 689", "conditions": "human respiratory syncytial virus"}, "RSVA 492 [13]": {"test_system": "RSVA 492", "conditions": "human respiratory syncytial virus"}, "RSVB 1276 [14]": {"test_system": "RSVB 1276", "conditions": "human respiratory syncytial virus"}, "RSVB 1000": {"test_system": "RSVB 1000", "conditions": "human respiratory syncytial virus"}, "[15]": {"conditions": "intranasal 0.2 mg/ml (0.19 mg/kg)"}, "[16]": {"conditions": "HEp-2, read-out: PCR IC50 (0.3 Log PFUe reduction) (converted)"}, "[17]": {"conditions": "HEp-2, read-out: PCR IC90 (1 Log PFUe reduction) (converted)"}, "[18]": {"conditions": "HEp-2, read-out: RSV titre in supernatant IC50 (0.3 Log PFUe reduction) (converted)"}, "[19]": {"conditions": "HEp-2, read-out: RSV titre in supernatant IC90 (1 Log PFUe reduction) (converted)"}}, "note": "pIC50: −log10 of the molar value. Where two headings read alike, the source gives them in different places.", "data": [{"smiles": "Cc1cnc(N2CC3(CCOCC3)C2)c(C(=O)Nc2ccc(C(=O)N3CCc4cc(C(=O)Nc5c(C)cccc5F)sc4-c4ccccc43)cc2)c1", "note": "[PC786, N-(2-fluoro-6-methylphenyl)-6-(4-(5-methyl-2-(7-oxa-2-azaspiro[3.5]nonan-2-yl)nicotinamido)benzoyl)-5,6-dihydro-4H-benzo[b]thieno[2,3-d]azepine-2-carboxamide]", "values": [{"measurement": "pIC50", "setting": "RSV A Long [1]", "value": 8.61}, {"measurement": "IC90", "setting": "RSV A Long [1]", "value": 0.00325, "unit": "µM"}, {"measurement": "pIC50", "setting": "RSVA 492 [2]; read-out: CPE IC50", "value": 9.38}, {"measurement": "IC90", "setting": "RSVA 492 [2]; read-out: CPE IC90", "value": 0.00057, "unit": "µM"}, {"measurement": "pIC50", "setting": "RSVB 1276 [3]; read-out: CPE IC50", "value": 7.30}, {"measurement": "IC90", "setting": "RSVB 1276 [3]; read-out: CPE IC90", "value": 0.821, "unit": "µM"}, {"measurement": "pIC50", "setting": "PIV3 (C243 strain)", "value": "< 4.85"}, {"measurement": "IC90 or IC95", "setting": "PIV3 (C243 strain)", "value": ">14", "unit": "µM"}, {"measurement": "IC90 or IC95", "setting": "[4]", "value": ">14", "unit": "µM"}, {"measurement": "pIC50", "setting": "[4]; unidentified influenza virus", "value": "< 4.85"}, {"measurement": "inhibition at 14 µM", "setting": "[5]; GT1B, Huh-7, HCV replicon assay, at 14 μM, read-out: maximum inhibition achieved", "value": 74, "unit": "%"}, {"measurement": "pIC50", "setting": "[5]; Huh-7, GT1b replicon", "value": 6.49}, {"measurement": "IC90 or IC95", "setting": "[5]; Huh-7, GT1b replicon", "value": ">14", "unit": "µM"}, {"measurement": "IC90 or IC95", "setting": "HIV-1 (IIIB strain)", "value": ">14", "unit": "µM"}, {"measurement": "pIC50", "setting": "HIV-1 (IIIB strain); Human immunodeficiency virus 1, IIIB", "value": "< 4.85"}, {"measurement": "pIC50", "setting": "RSV A2 [6]; 2 h exposure then 24-h washout before inoculation", "value": 9.10}, {"measurement": "pIC50", "setting": "RSV A2 [6]; nonwashout (sustained presence of drug)", "value": 9.89}, {"measurement": "Virus titer of lung homogenate, interquartile range", "setting": "RSV A2 [7]; [15]", "value": "1.9–3.0 log PFU/ml"}, {"measurement": "Virus titer of lung homogenate, median", "setting": "RSV A2 [7]; [15]", "value": 2.5, "unit": "log PFU/ml"}, {"measurement": "Virus titer of lung homogenate, geometric mean ± SD", "setting": "RSV A2 [7]; intranasal 0.2 mg/ml (0.19 mg/kg) once daily days −1 to 3", "value": "2.4 ± 0.59", "unit": "log PFU/ml"}, {"measurement": "Virus titer of lung homogenate, median", "setting": "RSV A2 [7]; intranasal 2.0 mg/ml (1.9 mg/kg)", "value": "<0.33 (LOQ) log PFU/ml"}, {"measurement": "Virus titer of lung homogenate, median", "setting": "RSV A2 [7]; intratracheal 2.0 mg/ml (3.2 mg/kg)", "value": "<0.33 (LOQ) log PFU/ml"}, {"measurement": "IP-10 transcripts in lung homogenates", "setting": "RSV A Long [8]; i.n. 0.33-10 mg/ml, day 4", "value": "dose-dependent inhibition"}, {"measurement": "RANTES transcripts in lung homogenates", "setting": "RSV A Long [8]; i.n. 0.33-10 mg/ml, day 4", "value": "dose-dependent inhibition"}, {"measurement": "RSV NS-1 gene transcripts in lung homogenates", "setting": "RSV A Long [8]; i.n. 0.33-10 mg/ml, day 4", "value": "dose-dependent inhibition"}, {"measurement": "viral load in lung homogenates on day 4", "setting": "RSV A Long [8]; i.n. once daily days 0 to 3, doses of more than […] (165 μg/cotton rat)", "value": "lower than the detection limit"}, {"measurement": "IC90", "setting": "[9]", "value": 0.0218, "unit": "µM"}, {"measurement": "inhibitory effects on human polymerase α", "setting": "human polymerase α", "value": "no measurable inhibitory effects"}, {"measurement": "inhibitory effects on human polymerase β", "setting": "human polymerase β", "value": "no measurable inhibitory effects"}, {"measurement": "inhibitory effects on human polymerase γ", "setting": "human polymerase γ", "value": "no measurable inhibitory effects"}, {"measurement": "CC50", "setting": "in vitro", "value": "> 14", "unit": "µM"}, {"measurement": "CC50", "setting": "[10]", "value": "> 14", "unit": "µM"}, {"measurement": "Cell viability", "setting": "HEp-2 cells", "value": "did not affect cell viability"}, {"measurement": "IC50", "setting": "RSV A2 [11]; [16]", "value": 0.00152, "unit": "µM"}, {"measurement": "IC90", "setting": "RSV A2 [11]; [17]", "value": 0.00169, "unit": "µM"}, {"measurement": "IC50", "setting": "RSV A Long [12]; [16]", "value": 0.00265, "unit": "µM"}, {"measurement": "IC90", "setting": "RSV A Long [12]; [17]", "value": 0.00345, "unit": "µM"}, {"measurement": "IC50", "setting": "RSV B 9320; [16]", "value": 0.0303, "unit": "µM"}, {"measurement": "IC90", "setting": "RSV B 9320; [17]", "value": 0.031, "unit": "µM"}, {"measurement": "IC50", "setting": "RSVA 689; [18]", "value": 0.00054, "unit": "µM"}, {"measurement": "IC90", "setting": "RSVA 689; [19]", "value": 0.00112, "unit": "µM"}, {"measurement": "IC50", "setting": "RSVA 492 [13]; [18]", "value": 0.00043, "unit": "µM"}, {"measurement": "IC90", "setting": "RSVA 492 [13]; [19]", "value": 0.0005, "unit": "µM"}, {"measurement": "IC50", "setting": "RSVB 1276 [14]; [18]", "value": 0.0151, "unit": "µM"}, {"measurement": "IC90", "setting": "RSVB 1276 [14]; [19]", "value": 0.0225, "unit": "µM"}, {"measurement": "IC50", "setting": "RSVB 1000; [18]", "value": 0.0103, "unit": "µM"}, {"measurement": "IC90", "setting": "RSVB 1000; [19]", "value": 0.0124, "unit": "µM"}]}]}
